These are literature values, as cited in US6288040A, “Medicament excipient particles for tissue-specific application of a medicament” (DSS Drug Delivery Service Gesellschaft zur Forderung der …, priority 1997, dated 2001).

Non-standard residues stand in square brackets, D forms with d. No end group written: not given here.

The data set relates to mice. The conditions noted are these: free dalargin, high dosage 20 mg/kg.

“Tyr-D-Ala-Gly-Phe-Leu-Arg (Y[dA]GFLR) [dalargin, hexapeptide, leu-enkephalin-analogon, opioid receptor agonist]”: the “analgesic effect after i.v. administration of dalargin” value is “does not lead to an analgesic effect”.
